Reference: PubChem BioAssay AID1963867 (Molecular Pharmacology Branch, DTP, NCI, 2024)

System: KRAS-mutant PDC tumor spheroid with HUVEC/MSC, viability
Assay: Anticancer human tumor 327498-153-R-J2-PDC patient-derived uterine carcinosarcoma cell line growth inhibition [KRAS2]
Conditions: for IC50: curve of first compound; for viability, T/C: stronger effect = lower value
Method in brief: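 KRAS-mutant tumor cells were grown as spheroids with HUVEC endothelial cells and human MSCs as stroma. Targeted agents were tested alone and with KRAS pathway inhibitors. Doses started at or near clinical Cmax, or 10 microM, descending half-log.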

[1] = second compound 0.1 µM, first compound 0.0316 µM
[2] = second compound 0.1 µM, first compound 0.1 µM
[3] = second compound 0.1 µM, first compound 0.316 µM
[4] = second compound 0.1 µM, first compound 1 µM
[5] = second compound 0.1 µM, first compound 3.16 µM
[6] = second compound 0.1 µM, first compound 10 µM
[7] = second compound 0.316 µM, first compound 0.0316 µM
[8] = second compound 0.316 µM, first compound 0.1 µM
[9] = second compound 0.316 µM, first compound 0.316 µM
[10] = second compound 0.316 µM, first compound 1 µM
[11] = second compound 0.316 µM, first compound 3.16 µM
[12] = second compound 0.316 µM, first compound 10 µM
[13] = second compound 1 µM, first compound 0.0316 µM
[14] = second compound 1 µM, first compound 0.1 µM
[15] = second compound 1 µM, first compound 0.316 µM
[16] = second compound 1 µM, first compound 1 µM
[17] = second compound 1 µM, first compound 3.16 µM
[18] = second compound 1 µM, first compound 10 µM
[19] = second compound 3.16 µM, first compound 0.0316 µM
[20] = second compound 3.16 µM, first compound 0.1 µM
[21] = second compound 3.16 µM, first compound 0.316 µM
[22] = second compound 3.16 µM, first compound 1 µM
[23] = second compound 3.16 µM, first compound 3.16 µM
[24] = second compound 3.16 µM, first compound 10 µM
[25] = second compound 10 µM, first compound 0.0316 µM
[26] = second compound 10 µM, first compound 0.1 µM
[27] = second compound 10 µM, first compound 0.316 µM
[28] = second compound 10 µM, first compound 1 µM
[29] = second compound 10 µM, first compound 3.16 µM
[30] = second compound 0.0316 µM, first compound 0.0316 µM
[31] = second compound 0.0316 µM, first compound 0.1 µM
[32] = second compound 0.0316 µM, first compound 0.316 µM
[33] = second compound 0.0316 µM, first compound 1 µM
[34] = second compound 0.0316 µM, first compound 3.16 µM
[35] = second compound 0.1 µM, first compound 0.01 µM
[36] = second compound 0.316 µM, first compound 0.01 µM
[37] = second compound 1 µM, first compound 0.01 µM
[38] = second compound 3.16 µM, first compound 0.01 µM
[39] = second compound 10 µM, first compound 0.01 µM
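Note: spheroids exposed to agents for seven days before reading.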
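Throughout, for viability, T/C: 100% = DMSO vehicle wells so lower means fewer viable cells.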

| Structure (SMILES) | IC50 (second compound 0.1 µM) [nM] | IC50 (second compound 0.316 µM) [nM] | IC50 (second compound 1 µM) [nM] | IC50 (second compound 3.16 µM) [nM] | viability, T/C [1] [%] | viability, T/C [2] [%] | viability, T/C [3] [%] | viability, T/C [4] [%] | viability, T/C [5] [%] | viability, T/C [7] [%] | viability, T/C [8] [%] | viability, T/C [9] [%] | viability, T/C [10] [%] | viability, T/C [11] [%] | viability, T/C [13] [%] | viability, T/C [14] [%] | viability, T/C [15] [%] | viability, T/C [16] [%] | viability, T/C [17] [%] | viability, T/C [19] [%] | other results |
| --- | --- | --- | --- | --- | --- | --- | --- | --- | --- | --- | --- | --- | --- | --- | --- | --- | --- | --- | --- | --- | --- |
| COc1cc(Nc2ncc3c(n2)-c2ccc(Cl)cc2C(c2c(F)cccc2OC)=NC3)ccc1C(=O)O + CC1OCC2(CCN(c3cnc(Sc4ccnc(N)c4Cl)c(N)n3)CC2)C1N | < 31.6 | < 31.6 | < 31.6 | < 31.6 | 14.7 | 11.3 | 9.61 | 8.46 | 10.4 | 11.9 | 8.86 | 8.33 | 8.66 | 9.93 | 9.52 | 8.62 | 7.21 | 7.15 | 8.7 | 7.99 | IC50 (second compound 10 µM): < 31.6 nM; viability, T/C [6]: 10.4%; viability, T/C [12]: 9.67%; viability, T/C [18]: 7.62%; viability, T/C [20]: 6.54%; viability, T/C [21]: 6%; viability, T/C [22]: 5.95%; viability, T/C [23]: 6.67%; viability, T/C [24]: 5.35%; viability, T/C [25]: 7.28%; viability, T/C [26]: 6.61%; viability, T/C [27]: 6.26%; viability, T/C [28]: 6.94%; viability, T/C [29]: 6.28%; viability, T/C (second compound 10 µM, first compound 10 µM): 5.22% |
| CC1COCCN1c1cc(-c2ccnn2C)c2ccnc(-c3ccn[nH]3)c2n1 (stereo not drawn) + C=CC(=O)N1CCN(c2nc(OCC3CCCN3C)nc3c2CCN(c2cccc4cccc(C)c24)C3)CC1CC#N | 10 | < 10 | < 10 | < 10 | 21 | 9.02 | 5.92 | 6.34 | 5.2 | 21.6 | 7.42 | 4.41 | 4.61 | 4.35 | 14.6 | 3.87 | 3.63 | 4.58 | 3.92 | 0.63 | IC50 (second compound 0.0316 µM): 12.5 nM; viability, T/C (second compound 0.0316 µM, first compound 0.01 µM): 55.6%; viability, T/C [30]: 26.6%; viability, T/C [31]: 8.55%; viability, T/C [32]: 6.25%; viability, T/C [33]: 6.05%; viability, T/C [34]: 5.16%; viability, T/C [35]: 50.2%; viability, T/C [36]: 35.1%; viability, T/C [37]: 29.9%; viability, T/C [38]: 0.17%; viability, T/C [20]: 0.14%; viability, T/C [21]: 0.14%; viability, T/C [22]: 0.29%; viability, T/C [23]: 0.22% |
| CC1COCCN1c1cc(-c2ccnn2C)c2ccnc(-c3ccn[nH]3)c2n1 (stereo not drawn) + C=CC(=O)N1CCN(c2nc(=O)n(-c3c(C)ccnc3C(C)C)c3nc(-c4c(O)cccc4F)c(F)cc23)C(C)C1 | 12.9 | < 10 | < 10 | < 10 | 24.8 | 8.42 | 5.52 | 6.25 | 5.47 | 21.4 | 9 | 6.3 | 6.22 | 6.06 | 23.3 | 10.6 | 7.15 | 6.94 | 6.78 | 19.8 | IC50 (second compound 10 µM): < 10 nM; viability, T/C [35]: 57%; viability, T/C [36]: 46.7%; viability, T/C [37]: 40.1%; viability, T/C [38]: 42.5%; viability, T/C [20]: 11.8%; viability, T/C [21]: 8.81%; viability, T/C [22]: 7.29%; viability, T/C [23]: 6.89%; viability, T/C [39]: 28.5%; viability, T/C [25]: 14.4%; viability, T/C [26]: 11.9%; viability, T/C [27]: 9.29%; viability, T/C [28]: 8.01%; viability, T/C [29]: 6.76% |
| CC1OCC2(CCN(c3cnc(Sc4ccnc(N)c4Cl)c(N)n3)CC2)C1N (stereo not drawn) + C=CC(=O)N1CCN(c2nc(OCC3CCCN3C)nc3c2CCN(c2cccc4cccc(C)c24)C3)CC1CC#N | < 31.6 | < 31.6 | < 31.6 | < 31.6 | 41.2 | 32.9 | 24.9 | 21.2 | 16.2 | 40.6 | 30.9 | 24.4 | 20.4 | 16.4 | 33 | 24.2 | 23.1 | 19.3 | 14.3 | 0.14 | IC50 (second compound 0.0316 µM): < 31.6 nM; viability, T/C [30]: 44%; viability, T/C [31]: 40.3%; viability, T/C [32]: 23.9%; viability, T/C [33]: 22.6%; viability, T/C [34]: 19.6%; viability, T/C (second compound 0.0316 µM, first compound 10 µM): 14.9%; viability, T/C [6]: 16.4%; viability, T/C [12]: 15.3%; viability, T/C [18]: 13.5%; viability, T/C [20]: 0.15%; viability, T/C [21]: 0.14%; viability, T/C [22]: 0.13%; viability, T/C [23]: 0.15%; viability, T/C [24]: 0.24% |
| COc1cc(OC)cc(N(CCNC(C)C)c2ccc3ncc(-c4cnn(C)c4)nc3c2)c1 | – | – | – | – | – | – | – | – | – | – | – | – | – | – | – | – | – | – | – | – | viability, T/C (compound 0.0316 µM): 73.7% [middle of 5 runs]; viability, T/C (compound 0.1 µM): 71.3% [middle of 5 runs]; viability, T/C (compound 10 µM): 0.42% [middle of 5 runs] |
| CC1COCCN1c1cc(-c2ccnn2C)c2ccnc(-c3ccn[nH]3)c2n1 (stereo not drawn) + CC1OCC2(CCN(c3cnc(Sc4ccnc(N)c4Cl)c(N)n3)CC2)C1N | 21 | < 10 | < 10 | < 10 | 39 | 8.18 | 6.79 | 8.72 | 6.58 | 21.5 | 8.27 | 5.01 | 7.64 | 4.81 | 14.8 | 7.95 | 4.88 | 4.72 | 4.24 | 12.1 | IC50 (second compound 10 µM): < 10 nM; viability, T/C [35]: 70%; viability, T/C [36]: 37.1%; viability, T/C [37]: 31.1%; viability, T/C [38]: 23.2%; viability, T/C [20]: 8.55%; viability, T/C [21]: 5.44%; viability, T/C [22]: 5.2%; viability, T/C [23]: 3.81%; viability, T/C [39]: 19.6%; viability, T/C [25]: 13.4%; viability, T/C [26]: 7.85%; viability, T/C [27]: 6.38%; viability, T/C [28]: 5.34%; viability, T/C [29]: 3.63% |
